Assay results as given in patent US6444617B1, “Fused-heterocycle dicarboxylic acid diamide derivatives or salts thereof, herbicide and usage thereof” (Nihon Nohyaku Co., Ltd., priority 1998, dated 2002).

How the values were obtained:
Format in all cases: in vivo
[1] = test system: barnyard grass (Echinochloa crus-galli Beauv.); experiment: Test Example 1: herbicidal effect on paddy field weeds before emergence; conditions: Dosage 5 kg/ha
Procedure, shortened: (§1)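 Seeds of both weeds, still ungerminated, in soil pots held under paddy conditions received a set dose of test solution as soil treatment. After twenty-one days, control relative to untreated pots was calculated and rated on a scoring scale.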

[2] = test system: bulrush (Scirpus juncoides Roxb.); experiment: as above; conditions: Dosage 5 kg/ha
Procedure, shortened: as §1

[3] = test system: barnyard grass (Echinochloa crus-galli Beauv.); experiment: Test Example 2: herbicidal effect on paddy field weeds after emergence; conditions: Dosage 5 kg/ha; one-leaved stage; 21 days after treatment
Procedure, shortened: (§2)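 Weeds were sown in 1/10000 are pots of soil flooded to paddy conditions and grown to the one-leaf stage, then the soil was treated with a solution of compound at a predetermined dosage.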

[4] = test system: bulrush (Scirpus juncoides Roxb.); experiment: as above; conditions: Dosage 5 kg/ha; one-leaved stage; 21 days after treatment
Procedure, shortened: as §2

[5] = test system: monochoria (Monochoria vaginalis Presl); experiment: as above; conditions: Dosage 5 kg/ha; one-leaved stage; 21 days after treatment
Procedure, shortened: as §2

[6] = test system: barnyard grass (Echinochloa crus-galli Beauv.), Ec; experiment: Test Example 3: herbicidal effect on upland weeds before emergence; conditions: dosage 5 kg/ha
Procedure, shortened: (§3)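 Test compound, formulated as a liquid at a fixed concentration, is sprayed before weed emergence. Two weeks later, kill rate is derived and herbicidal activity is rated.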

[7] = test system: bird's eye speedwell (Veronica persica Poir.), Vp; experiment: as above; conditions: dosage 5 kg/ha
Procedure, shortened: as §3

[8] = test system: cleavers (Galium aparine L.), Ga; experiment: as above; conditions: dosage 5 kg/ha
Procedure, shortened: as §3

[9] = test system: cocklebur (Xanthium strumarium L.), Xs; experiment: as above; conditions: dosage 5 kg/ha
Procedure, shortened: as §3

[10] = test system: forxtail grass (Alopecurus aequalis var. amurensis Ohwi), Am; experiment: as above; conditions: foxtail grass, dosage 5 kg/ha
Procedure, shortened: as §3

[11] = test system: velvetleaf (Abutilon theophtasti L.), At; experiment: as above; conditions: dosage 5 kg/ha
Procedure, shortened: as §3

[12] = test system: soybean plant (So); experiment: Test Example 3: phytotoxicity to upland crop plants, treatment before emergence; conditions: dosage 5 kg/ha
Procedure, shortened: (§4)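 Compound formulated as a liquid agent at a prescribed concentration is sprayed before crop emergence. After fourteen days, damage to soybean and wheat is examined and rated by a judgment criterion.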

[13] = test system: wheat (Wh); experiment: as above; conditions: dosage 5 kg/ha
Procedure, shortened: as §4

[14] = test system: barnyard grass (Echinochloa crus-galli Beauv.), Ec; experiment: Test Example 4: herbicidal effect on upland weeds after emergence; conditions: dosage 5 kg/ha; sprayed after emergence; judged 14 days after treatment
Procedure, shortened: (§5)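 Scores of weed-killing rate, with crop phytotoxicity, come from inspection 14 days after plants in soil vats, grown to specified leaf stages, are sprayed with a formulation holding the compound at a prescribed concentration.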

[15] = test system: bird's eye speedwell (Veronica persica Poir.), Vp; experiment: as above; conditions: dosage 5 kg/ha; sprayed after emergence; judged 14 days after treatment
Procedure, shortened: as §5

[16] = test system: cleavers (Galium aparine L.), Ga; experiment: as above; conditions: dosage 5 kg/ha; sprayed after emergence; judged 14 days after treatment
Procedure, shortened: as §5

[17] = test system: cocklebur (Xanthium strumarium L.), Xs; experiment: as above; conditions: dosage 5 kg/ha; sprayed after emergence; judged 14 days after treatment
Procedure, shortened: as §5

[18] = test system: forxtail grass (Alopecurus aequalis var. amurensis Ohwi), Am; experiment: as above; conditions: dosage 5 kg/ha; sprayed after emergence; judged 14 days after treatment
Procedure, shortened: as §5

[19] = test system: velvetleaf (Abutilon theophtasti L.), At; experiment: as above; conditions: dosage 5 kg/ha; sprayed after emergence; judged 14 days after treatment
Procedure, shortened: as §5

[20] = test system: soybean plant; experiment: Test Example 4: phytotoxicity to upland crop plants, treatment after emergence; conditions: dosage 5 kg/ha, sprayed after emergence, judged 14 days after treatment
Procedure, shortened: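 Post-emergence foliar spray, compound at prescribed concentration, applied at defined leaf stages; weeds plus soybean/wheat grown in soil vats. Read-out: weed-killing rate and crop injury, 14 d post-treatment.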

[21] = test system: wheat; experiment: as above; conditions: dosage 5 kg/ha, sprayed after emergence, judged 14 days after treatment
Procedure, shortened: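 Seeds sown in soil and covered. Plants raised to specified leaf stages. Agent with test compound at a prescribed concentration sprayed. Herbicidal effect and crop damage scored after 14 days as weed-killing rate.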

Structure (SMILES) | Pre-emergence treatment Barnyard grass (herbicidal effect) [1] | Pre-emergence treatment Bulrush (herbicidal effect) [2] | Post-emergence treatment Barnyard grass (herbicidal effect) [3] | Post-emergence treatment Bulrush (herbicidal effect) [4] | Post-emergence treatment Monochoria (herbicidal effect) [5] | Herbicidal effect Ec [6] | Herbicidal effect Vp [7] | Herbicidal effect Ga [8] | Herbicidal effect Xs [9] | Herbicidal effect Am [10] | Herbicidal effect At [11] | Phytotoxicity So [12] | Phytotoxicity Wh [13] | Herbicidal effect Ec [14] | Herbicidal effect Vp [15] | Herbicidal effect Ga [16] | Herbicidal effect Xs [17] | Herbicidal effect Am [18] | Herbicidal effect At [19] | Phytotoxicity So [20] | further results
CCCNC(=O)c1nc2cc(OC)c(OC)cc2cc1C(=O)Nc1c(CC)ccc(Cl)c1CC [compound 305] | 5 (Weed-killing rate is 100%.) | 4 (Weed-killing rate is 90-99%.) | 4 (Weed-killing rate is 90-99%.) | 3 (Weed-killing rate is 70-89%.) | 5 (Weed-killing rate is 100%.) | 5 (Weed-killing rate is 100%.) | 4 (Weed-killing rate is 90-99%.) | 3 (Weed-killing rate is 70-89%.) | 3 (Weed-killing rate is 70-89%.) | 4 (Weed-killing rate is 90-99%.) | 4 (Weed-killing rate is 90-99%.) | 0 (Crop-killing rate is 0-20% (No Phytotoxicity).) | 2 (Crop-killing rate is 40-69%.) | 4 (Weed-killing rate is 90-99%.) | 4 (Weed-killing rate is 90-99%.) | 2 (Weed-killing rate is 40-69%.) | 2 (Weed-killing rate is 40-69%.) | 3 (Weed-killing rate is 70-89%.) | 4 (Weed-killing rate is 90-99%.) | 1 (Crop-killing rate is 1-39%.) | Phytotoxicity Wh [21]: 2 (Crop-killing rate is 40-69%.)
CCCNC(=O)c1nc2ncn(C)c2cc1C(=O)Nc1c(CC)ccc(Cl)c1CC [compound 1209] | 5 (Weed-killing rate is 100%.) | 5 (Weed-killing rate is 100%.) | 5 (Weed-killing rate is 100%.) | 5 (Weed-killing rate is 100%.) | 5 (Weed-killing rate is 100%.) | 5 (Weed-killing rate is 100%.) | 5 (Weed-killing rate is 100%.) | 5 (Weed-killing rate is 100%.) | 5 (Weed-killing rate is 100%.) | 5 (Weed-killing rate is 100%.) | 5 (Weed-killing rate is 100%.) | 5 (Crop-killing rate is 100%.) | 5 (Crop-killing rate is 100%.) | 5 (Weed-killing rate is 100%.) | 5 (Weed-killing rate is 100%.) | 5 (Weed-killing rate is 100%.) | 5 (Weed-killing rate is 100%.) | 5 (Weed-killing rate is 100%.) | 5 (Weed-killing rate is 100%.) | 5 (Crop-killing rate is 100%.) | Phytotoxicity Wh [21]: 5 (Crop-killing rate is 100%.)
CCCNC(=O)c1nc2c(ccn2C)cc1C(=O)Nc1c(CC)ccc(Cl)c1CC [compound 824] | 5 (Weed-killing rate is 100%.) | 5 (Weed-killing rate is 100%.) | 5 (Weed-killing rate is 100%.) | 5 (Weed-killing rate is 100%.) | 5 (Weed-killing rate is 100%.) | 5 (Weed-killing rate is 100%.) | 5 (Weed-killing rate is 100%.) | 5 (Weed-killing rate is 100%.) | 5 (Weed-killing rate is 100%.) | 5 (Weed-killing rate is 100%.) | 5 (Weed-killing rate is 100%.) | 5 (Crop-killing rate is 100%.) | 5 (Crop-killing rate is 100%.) | 5 (Weed-killing rate is 100%.) | 5 (Weed-killing rate is 100%.) | 5 (Weed-killing rate is 100%.) | 5 (Weed-killing rate is 100%.) | 5 (Weed-killing rate is 100%.) | 5 (Weed-killing rate is 100%.) | 4 (Crop-killing rate is 90-99%.) | Phytotoxicity Wh [21]: 5 (Crop-killing rate is 100%.)
CCNC(=O)c1nc2ncccc2cc1C(=O)Nc1c(CC)ccc(Cl)c1CC [Compound No. 360, 3-(3-Chloro-2,6-diethylphenyl)-aminocarbonyl-1,8-naphthylidine-2-carboxylic Acid Ethylamide] | 5 (Weed-killing rate is 100%.) | 5 (Weed-killing rate is 100%.) | 5 (Weed-killing rate is 100%.) | 5 (Weed-killing rate is 100%.) | 5 (Weed-killing rate is 100%.) | 5 (Weed-killing rate is 100%.) | 5 (Weed-killing rate is 100%.) | 5 (Weed-killing rate is 100%.) | 5 (Weed-killing rate is 100%.) | 5 (Weed-killing rate is 100%.) | 5 (Weed-killing rate is 100%.) | 3 (Crop-killing rate is 70-89%.) | 4 (Crop-killing rate is 90-99%.) | 5 (Weed-killing rate is 100%.) | 5 (Weed-killing rate is 100%.) | 4 (Weed-killing rate is 90-99%.) | 5 (Weed-killing rate is 100%.) | 5 (Weed-killing rate is 100%.) | 5 (Weed-killing rate is 100%.) | 3 (Crop-killing rate is 70-89%.) | Phytotoxicity Wh [21]: 4 (Crop-killing rate is 90-99%.)
CCc1ccc(Cl)c(CC)c1NC(=O)c1nc2ccccc2nc1C(=O)NCC(C)C [compound 1311] | 5 (Weed-killing rate is 100%.) | 5 (Weed-killing rate is 100%.) | 5 (Weed-killing rate is 100%.) | 5 (Weed-killing rate is 100%.) | 5 (Weed-killing rate is 100%.) | 5 (Weed-killing rate is 100%.) | 5 (Weed-killing rate is 100%.) | 5 (Weed-killing rate is 100%.) | 5 (Weed-killing rate is 100%.) | 5 (Weed-killing rate is 100%.) | 5 (Weed-killing rate is 100%.) | 5 (Crop-killing rate is 100%.) | 5 (Crop-killing rate is 100%.) | 5 (Weed-killing rate is 100%.) | 5 (Weed-killing rate is 100%.) | 5 (Weed-killing rate is 100%.) | 5 (Weed-killing rate is 100%.) | 5 (Weed-killing rate is 100%.) | 5 (Weed-killing rate is 100%.) | 5 (Crop-killing rate is 100%.) | Phytotoxicity Wh [21]: 5 (Crop-killing rate is 100%.)
